Reference: patent publication US20260355199A1, “COMPOSITIONS AND METHODS FOR TREATING OR PREVENTING NONALCOHOLIC STEATOHEPATITIS (NASH), ANOREXIA, DEPRESSION, ENDOMETRIOSIS, AND OTHER DISEASES OR DISORDERS” (priority 2022, published 2026)
Entries after “also recorded” stand apart in the source; their conditions may differ.

Tests used:
Tet3 and Agrp = Tet3 and Agrp expression in leptin-treated GT1-7 cells; assay type: cell-based, mouse
Protocol: Mouse GT1-7 hypothalamic neuronal cell line (Sigma-Aldrich, SCC116), human SH-SY5Y neuronal blastoma cell line (ATCC, CRL-2266), and embryonic mouse hypothalamus cell line N11 (mHypoE-N11) (Cedarlane, CLU107) were purchased and cultured according to the manufacturers' instructions. For siRNA transfection in a 24-well plate scale, cells were seeded at a density of 2×10^5 cells/well the day before transfection. To prepare siRNA transfection solution for each well of cells, 5 pmol of NT siRNA (non-targeting control siRNA, AM4636, Ambion), Tet3 siRNA (siRNA specifically targeting mouse Tet3, 4390815/s101483, Ambion), or TET3 siRNA (siRNA specifically targeting human TET3, 4392420/s47238, Ambion) (Cao et al., 2019, Oncogene, 38:5356-5366; Xu et al., 2020, Cell Rep., 30:1310-1318) were mixed with 25 μl of OPTI-MEM (Gibco, 31985-070) by gentle pipetting (Cao, T. et al., 2019, Oncogene, 38:5356-5366; Xu, Y. et al., 2020, Cell Reports, 30:1310-1318 e5). In parallel, 1.5 μl of Lipofectamine RNAiMAX (Invitrogen, 13778-150) was mixed with 25 μl of OPTI-MEM by gentle pipetting. Following 5 min of incubation at room temperature, the resulting 50 μl of transfection solution was added to one well of cells containing 1 ml culture media. […]

TET3 = TET3 protein in the ARC of mice (immunofluorescence); assay type: in vivo, mouse
Protocol: To test whether Bobcat339 affects TET3 protein expression in AgRP neurons, Agrp-IRES-Cre::LSL-Cas9-GFP mice with GFP expression specifically in AgRP neurons were intraperitoneally injected with vehicle or Bobcat339 at 2.5 mg/kg, followed by isolation of ARCs under fed conditions (9:00-11:00) two days later. This dose was chosen based on the dose response studies. TET2 expression was widespread but was negligible in AgRP neurons.
Bobcat339 powder (Sigma-Aldrich, SML2611) was freshly dissolved in DMSO (vehicle) at a concentration of 50 mg/mL and filtered through a 0.22 micron. It was further diluted with 1×PBS to a final concentration of 0.5 mg/mL before injections. Mice were injected intraperitoneally with Bobcat339 at 1 mg/kg, 2.5 mg/kg, or 4 mg/kg.
The immunofluorescence for brain slices was conducted using previous methods (18). In brief, postfixed sections were cut into 40-μm-thick sections, followed by 5 times washing. Then the sections were incubated in blocking solution for 20 minutes and incubated with anti-TET3 (dilution 1:2000; Millipore Sigma, ABE290), anti-TET2 (dilution 1:500; Proteintech, 21207-1-AP), anti-AGRP (dilution 1:400; H-003-57, Phoenix Pharmaceuticals), anti-NPY (dilution 1:800, Cell Signaling Technology, 11976S), anti-VGAT (dilution 1:200; Abcam, Ab23592), or anti-FOS (dilution 1:1000; Biosensis, R-1751-050) overnight at 4 °C. Negative controls were performed by omitting the respective primary antibodies. The next day, sections were washed 5 times and incubated in 0.4% Triton x-100 PBS with the secondary antibody donkey anti-Rabbit IgG Fluor 594 (dilution 1:500; A-21207, Invitrogen) for 2 h at RT. The sections were coverslipped and scoped using a Keyence BZ-X700 fluorescence microscope. The fluorescence signals from GFP in AgRP neurons were detected without immunostaining.

[1] = system: HT-22 mouse hippocampal neuronal cells; experiment: DNA 5hmC level in HT-22 hippocampal neuronal cells; assay type: cell-based; settings: 10 μM, 24 h
Source text: It was not unprecedented that compounds initially developed as protein function inhibitors were later serendipitously found to be protein degraders (Bekes, M. et al., 2022, Nature Reviews Drug Discovery, 21(3):181-200).

Tet3 mRNA = experiment: Tet3/Tet2 mRNA in RAW 264.7 cells; assay type: cell-based, mouse; settings: RAW 264.7, 10 μM, 24 h
Protocol: For siRNA transfection in a 24-well plate scale of Raw 264.7 cells, 10 pmol of NT siRNA (AM4636, Ambion) or Tet3 siRNA (4390815/s101483, Ambion) was mixed with 100 μL of OPTI-MEM (Gibco, 31985-070) by gentle pipetting. In parallel, 3 μL of Lipofectamine RNAiMAX (Invitrogen, 13778-150) was mixed with 100 μL of OPTI-MEM by gentle pipetting. Following 5 min of incubation at RT, the two were combined and the resulting 200 μL of transfection solution was added to each well of cells. After 24 h of incubation at […] in a 5% humidified CO2 tissue culture incubator, 300 μL of growth media was added and incubation was continued until cell harvesting.
Bobcat339 Treatment of Cultured Cells Bobcat339 powder (Sigma-Aldrich, SML2611) was freshly dissolved in DMSO at a concentration of 5 mM and filtered through a 0.22 micron. Cells grown at a density of 80-90% were incubated in growth media with vehicle (DMSO) or Bobcat339 at a final concentration of 10 μM for 24 h, followed by RNA and protein extraction.
Total RNAs were extracted from cells using PureLink RNA Mini Kit. 0.5-1 μg total RNA was reverse transcribed to cDNA in a reaction volume of 20 μL using PrimeScript RT Reagent Kit. Real-time quantitative PCR was performed in a 15 μL reaction volume containing 0.5-1 μL of cDNA using SsoAdvanced Universal SYBR Green Supermix in a Bio-Rad iCycler. Gene expression levels were normalized against RPLP0.

| Compound | Tet3 expression (Tet3 and Agrp; leptin 1×10^−8 M vs. 1×10^−10 M) | Agrp expression in response to increased leptin (Tet3 and Agrp; with TET3 knockdown) | TET3-positive AgRP neurons (TET3; 2.5 mg/kg i.p., two days) | TET3 protein in non-AgRP cells (TET3; decrease limited to the tip regions of the ARC even at 4 mg/kg) | onset of TET3 decrease in AgRP neurons and neuron activation (TET3; following exposure to Bobcat339) | DNA 5hmC levels [1] | Tet3 mRNA (Tet3 mRNA) |
| --- | --- | --- | --- | --- | --- | --- | --- |
| leptin: adipose hormone; mouse leptin L3772-1MG or human leptin L4146-1MG, Sigma Aldrich | a positive effect on Tet3 expression; also recorded: upregulated TET3 | no longer decreased in response to increased leptin | – | – | – | – | – |
| Nc1nc(=O)n(-c2cccc(-c3ccccc3)c2)cc1Cl [Bobcat339, 4-Amino-1-[1,1′-biphenyl]-3-yl-5-chloro-2(1H)-pyrimidinone] | – | – | a clear decrease in the number of TET3-positive AgRP neurons; also recorded: decreased TET3 protein in AgRP neurons; also recorded: inhibited TET3 expression in AgRP neurons | decreased TET3 protein in non-AgRP cells | as early as three days | decreased DNA 5hmC levels | without altering its mRNA abundance; also recorded: no significant difference in expression between the groups |
